Laboratory results reported in patent US9125866B1, “Antidepressant compounds” (KING SAUD UNIVERSITY, priority 2015, dated 2015).

System: mice subjected to the forced swim test
Assay: Forced swim test on mice (duration of immobility)
Format: in vivo, Swiss white mice
Conditions: for Duration of immobility in seconds during the last four minutes of the six minute period: 20 minutes before test, N=4; for Activity in reducing immobility time compared with control (in words): 40 mg/Kg; for Percentage decrease in immobility times for dosage of 40 mg/kg: 40 mg/kg i.p.; for Percentage decrease in immobility times for dosage of 40 mg/kg / Percentage decrease in immobility times for dosage of 80 mg/kg: versus control; for Percentage decrease in immobility times for dosage of 80 mg/kg: 80 mg/kg i.p.
From the text: The antidepressant compounds can be used to treat depression. […] As exemplified in such technical articles as I Weiner et al., “A comparison of drug effects in latent inhibition and the forced swim test differentiates between the typical antipsychotic haloperidol, the atypical antipsychotics clozapine and olanzapine, and the antidepressants imipramine and paroxetine”, Behavioural Pharmacology (2003), Vol. 14, pp. 215-22, and D. A. Slattery et al., “Using the rat forced swim test to assess antidepressant-like activity in rodents”, Nature Protocols (2012), Vol. 7, pp. 1009-1014, the forced swim test is recognized in the pharmacological art as a standard test protocol for assessing antidepressant-like behavior induced by antidepressant compounds. The forced swimming test measures the duration of immobility of rodents exposed to the threat of drowning. Mice normally swim for 1-2 minutes and then turn helpless and become immobile. […] For example, the mouse may appear to float, i.e. almost immobile and with its head above water. The majority of known antidepressant drugs decrease the duration of immobility.
To test for the presence of anti-depressant activity of the test compounds 3, 4, 5 and 6, the forced swim test was conducted on mice. The forced swimming test was conducted generally in accordance with the procedures set forth in David, D. J. P. et al., Psychopharmacology (2003), 166, 373-382, with the exception of a slight modification in the dimensions of the vessel used as a swimming pool. The vessel was a glass cylinder having an internal diameter of 25 cm and included water having a depth of 15 cm and a temperature of about 22±2° C. Swiss white mice weighing 25 g each were divided into 17 groups (N=4). One group served as control and the others divided for each test compound.
The test compounds were dissolved in DMSO and administered in 4 dose levels of 10, 20, 40, 80 mg/kg, respectively, intraperitoneally (“i.p.”). The antidepressant compounds were administered to the mice 20 minutes before starting the swimming test. The control group was administered the vehicle only, in the same volume. Each mouse was allowed to stay in the swimming pool for 6 minutes. The duration of the period of immobility was measured at the beginning of the third minute of placing the mouse into the swimming pool and ended by the end of the sixth minute. In other words, the duration of immobility observed only during the last four minutes was recorded. For each test compound dose, the time of immobility was calculated and then averaged.

[1] = 40 mg/kg i.p. in DMSO, * P<0.05 compared with control
[2] = 80 mg/kg i.p. in DMSO, * P<0.05 compared with control

| SMILES | Duration of immobility in seconds during the last four minutes of the six minute period (10 mg/kg i.p. in DMSO) [s] | Duration of immobility in seconds during the last four minutes of the six minute period (20 mg/kg i.p. in DMSO) [s] | Activity in reducing immobility time compared with control (in words) (p<0.05, N=4) | Duration of immobility in seconds during the last four minutes of the six minute period [1] | Percentage decrease in immobility times for dosage of 40 mg/kg [%] | Immobility time compared with the control (in words) (80 mg/kg dosage, p<0.05, N=4) | Duration of immobility in seconds during the last four minutes of the six minute period [2] | Percentage decrease in immobility times for dosage of 80 mg/kg [%] | Activity in the forced swim test (in words) (all doses tested (10, 20, 40, 80 mg/kg i.p.)) | Activity compared with compound 3 (in words) (80 mg/kg dosage, p<0.05, N=4) |
| --- | --- | --- | --- | --- | --- | --- | --- | --- | --- | --- |
| O=CC1CC2c3cccc(Cl)c3C1c1c(Cl)cccc12 (stereo not shown) [Compound 3, 4,5-dichloro-9,10-dihydro-9,10-ethanoanthracene-11-carbaldehyde] | 240 | 240 | significantly active in reducing immobility time | 160 ± 11* seconds | 28.9 | significant decrease in immobility time | 65 ± 4* seconds | 71.1 | – | – |
| O=CC1CC2c3c(Cl)cccc3C1c1cccc(Cl)c12 (stereo not shown) [Compound 4, 1,8-dichloro-9,10-dihydro-9,10-ethanoanthracene-11-carbaldehyde] | 240 | 240 | – | 240 s | – | – | 240 s | – | completely inactive | – |
| CNCC1CC2c3cccc(Cl)c3C1c1c(Cl)cccc12 (stereo not shown) [Compound 5] | 240 | 200 ± 12.3 | significantly active in reducing immobility time | 140 ± 7.9* seconds | 37.8 | significant decrease in immobility time | 36 ± 4.9* seconds | 84.0 | – | significantly more active than compound 3 |
